Source: patent publication US20120010161A1, “NOVEL AZAPEPTIDE OR AZAPEPTIDOMIMETIC COMPOUNDS INHIBITING BCRP AND/OR P-GP” (CENTRE NATIONAL DE LA RECHERCHE SCIENTIFIQUE, priority 2009, published 2012)

Key:
ABCC1 = ABCC1 (Homo sapiens, UniProt P33527); conditions: cited from earlier work
ABCG2 = biological target: T1, ABCG2 (Homo sapiens, UniProt Q9UNQ0); conditions: cited from earlier work
T1 sequence (Q9UNQ0 1-655): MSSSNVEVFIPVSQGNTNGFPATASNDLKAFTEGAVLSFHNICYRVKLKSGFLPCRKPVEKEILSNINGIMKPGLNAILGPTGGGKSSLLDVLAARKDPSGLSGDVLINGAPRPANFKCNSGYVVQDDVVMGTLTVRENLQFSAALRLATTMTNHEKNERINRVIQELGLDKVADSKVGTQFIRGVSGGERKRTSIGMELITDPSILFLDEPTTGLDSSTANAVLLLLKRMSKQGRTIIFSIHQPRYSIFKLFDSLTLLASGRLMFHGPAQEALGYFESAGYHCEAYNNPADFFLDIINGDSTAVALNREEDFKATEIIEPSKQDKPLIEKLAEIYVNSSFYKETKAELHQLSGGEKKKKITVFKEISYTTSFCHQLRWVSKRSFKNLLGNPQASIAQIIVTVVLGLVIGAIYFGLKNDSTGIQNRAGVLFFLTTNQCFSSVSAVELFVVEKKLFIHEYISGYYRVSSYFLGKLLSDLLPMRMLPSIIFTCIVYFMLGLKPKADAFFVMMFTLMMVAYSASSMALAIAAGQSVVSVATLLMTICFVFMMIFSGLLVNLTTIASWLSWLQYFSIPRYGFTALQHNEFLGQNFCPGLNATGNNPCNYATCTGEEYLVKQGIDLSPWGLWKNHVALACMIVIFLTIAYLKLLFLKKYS

ABCB1 [1] = biological target: T2, ABCB1 (Homo sapiens, UniProt P08183); conditions: cited from earlier work
BCRP/ABCG2 = biological target: T3, BCRP/ABCG2 (Homo sapiens, UniProt Q9UNQ0); assay: Flow cytometry: mitoxantrone efflux induced by ABCG2 in transfected HEK-293 cells; assay type: cell-based
T3 construct: expressed in transfected cells; host or cells: HEK-293 transfected with pcDNA3.1-ABCG2
T3 sequence (Q9UNQ0 1-655): T1 sequence (Q9UNQ0 1-655)
Description: (§1) Cell cultures. The human […] HEK-293 transfected with the vector pcDNA3.1 including or not the gene encoding ABCG2 (Robey, R. W., Honjo, Y., Morisaki, K., Nadjem, T. A., Runge, S., Risbood, M., Poruchynsky, M. S., Bates, S. E. 2003, Br. J. Cancer 89(10) 1971-1978) was used to test the efficacy of the products on ABCG2. The newborn hamster kidney cell line BHK21 either natural (negative control) or transfected with the vector pNUT-MRP/His expressing the gene encoding ABCC1 (Chang, Xiu-Bao, Hou, Yue-Xian, Riordan, John R. 1997, J. Biol. Chem. 272(49) 30962-30968) was used to test the efficacy of the products on ABCC1. The cell line NIH3T3 natural or transfected with the vector pHaMDR1/A expressing ABCB1 (Cardarelli, Carol O., Aksentijevich, Ivan, Pastan, Ira, Gottesman, Michael M. 1995 Cancer Res. 55 1086-1091) was used to test the efficacy of the compounds on ABCB1. The various cell types are cultured according to the protocols described previously (Robey, R. W., Honjo, Y., Morisaki, K., Nadjem, T. A., Runge, S., Risbood, M., Poruchynsky, M. S., Bates, S. E. 2003, Br. J. Cancer 89(10) 1971-1978 for the line HEK293, Chang, Xiu-Bao, Hou, Yue-Xian, Riordan, John R. 1997, J. Biol. Chem. 272(49) 30962-30968 for the line BHK21 and Cardarelli, Carol O., Aksentijevich, Ivan, Pastan, Ira, Gottesman, Michael M. 1995 Cancer Res. 55 1086-1091 for the line NIH3T3).
(§2) FIG. 1 schematically illustrates an efflux of substrate induced by a typical ABC transporter. The substrates S, such as mitoxantrone effluxed with ABCG2 and ABCB1 or daunorubicin effluxed with ABCC1, are accumulated in the cells and expelled by the transporter T, leading to a decrease in intracellular fluorescence. In the case of accumulation of the product, typically by inhibition of the efflux protein, the intracellular fluorescence increases.
(§3) Flow cytometry. Transfected or untransfected HEK-293 and BHK-21 cells are in a first stage placed in contact with substrate (5 μM mitoxantrone or 1 μM daunorubicin depending on the transporter). The substrate is accumulated for 30 minutes at 37° C. in the presence or absence of varied concentrations of the test molecules, at 0.5% of DMSO final. After washing with PBS, the cells are incubated in medium containing the same concentrations of test molecules as previously, for 1 hour at 37° C. The drug intracellular fluorescence is measured with a FACscan flow cytometer (Becton Dickinson, Mountain View, Calif.). The fluorescent substrates are excited at 488 nm; the fluorescence emission of mitoxantrone (MTX) is measured at 650 nm and that of daunorubicin is measured at 530 nm. The efficacy of the test molecules is estimated by means of equation 1:
(§4) % efficacy=100×(FA−FBG)/(FC−FBG),
(§5) in which: • FA corresponds to the intracellular level of substrate measured in the cells overexpressing the transporter T (corresponding to the lowest level of fluorescence in the absence of inhibitor), • FC corresponds to the fluorescence in the control cells not expressing the test transporter. This is thus the maximum accumulation of substrate in the cells), • FBG corresponds to the fluorescence measured in the absence of substrate and in the presence of inhibitor.
(§6) The compounds presented in TABLES 2 to 5 were tested by flow cytometry on mammalian cell lines selectively expressing the efflux proteins ABCG2, ABCB1 or ABCC1, as described previously.
(§7) The mitoxantrone efflux induced by ABCG2 or ABCB1 and the daunorubicin efflux induced by ABCC1 are estimated by flow cytometry, as described previously, at 10 μM of each test compound, and then at 2 μM for the compounds showing at least 80% efficacy at 10 μM. The concentration inducing 50% inhibition (IC50) was estimated for the most efficient aza derivatives. The values are obtained by three independent experiments and were adjusted using the SigmaPlot software.

P-gp/ABCB1 = biological target: T4, P-gp/ABCB1 (Homo sapiens, UniProt P08183); assay: Flow cytometry: mitoxantrone efflux induced by ABCB1 in transfected NIH3T3 cells; assay type: cell-based
T4 construct: expressed in transfected cells; host or cells: NIH3T3 transfected with pHaMDR1/A
Description: as §1, §2, §3, §4, §5, §6, §7

ABCB1 [2] = biological target: T2, ABCB1; assay: Type of inhibition: daunorubicin efflux at varied substrate and inhibitor concentrations (FIG. 11); assay type: cell-based; parameters: expressed in transfected cells; host or cells: NIH3T3 transfected with pHaMDR1/A; conditions: daunorubicin efflux as a function of its concentration

T4 sequence (P08183 whole entry): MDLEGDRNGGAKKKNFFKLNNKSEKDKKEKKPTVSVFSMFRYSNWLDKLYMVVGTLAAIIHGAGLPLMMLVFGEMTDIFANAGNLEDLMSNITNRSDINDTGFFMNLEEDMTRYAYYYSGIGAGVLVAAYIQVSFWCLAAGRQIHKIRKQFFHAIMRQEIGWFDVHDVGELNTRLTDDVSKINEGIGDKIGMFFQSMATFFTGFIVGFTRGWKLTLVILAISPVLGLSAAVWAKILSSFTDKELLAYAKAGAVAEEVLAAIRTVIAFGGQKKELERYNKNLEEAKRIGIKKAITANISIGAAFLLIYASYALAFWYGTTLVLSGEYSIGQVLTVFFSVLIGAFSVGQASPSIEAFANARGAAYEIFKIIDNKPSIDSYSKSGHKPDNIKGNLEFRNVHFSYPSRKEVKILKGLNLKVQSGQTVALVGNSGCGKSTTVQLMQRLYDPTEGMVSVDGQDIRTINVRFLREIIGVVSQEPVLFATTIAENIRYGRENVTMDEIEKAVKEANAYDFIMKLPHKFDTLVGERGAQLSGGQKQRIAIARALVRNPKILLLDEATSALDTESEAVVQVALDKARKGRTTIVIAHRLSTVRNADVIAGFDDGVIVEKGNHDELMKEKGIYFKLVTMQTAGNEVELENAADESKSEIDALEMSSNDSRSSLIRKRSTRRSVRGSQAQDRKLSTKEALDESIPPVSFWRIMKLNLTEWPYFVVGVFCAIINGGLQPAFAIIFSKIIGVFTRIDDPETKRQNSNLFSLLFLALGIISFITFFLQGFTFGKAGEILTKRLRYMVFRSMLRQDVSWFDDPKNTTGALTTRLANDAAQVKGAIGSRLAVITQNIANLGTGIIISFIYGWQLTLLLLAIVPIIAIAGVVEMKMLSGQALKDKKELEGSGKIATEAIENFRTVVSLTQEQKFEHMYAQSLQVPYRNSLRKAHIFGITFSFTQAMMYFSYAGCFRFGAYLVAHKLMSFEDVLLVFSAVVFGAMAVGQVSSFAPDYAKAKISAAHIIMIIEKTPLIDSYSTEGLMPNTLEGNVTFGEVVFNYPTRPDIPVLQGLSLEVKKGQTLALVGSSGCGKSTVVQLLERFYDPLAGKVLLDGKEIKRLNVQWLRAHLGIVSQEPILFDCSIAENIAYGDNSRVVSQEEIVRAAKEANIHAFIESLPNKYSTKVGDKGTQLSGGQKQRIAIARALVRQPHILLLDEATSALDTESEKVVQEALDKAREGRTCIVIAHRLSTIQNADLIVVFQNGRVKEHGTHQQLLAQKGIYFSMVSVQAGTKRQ
T2 sequence (P08183 whole entry): as above
ABCC1, sequence (P33527 whole entry): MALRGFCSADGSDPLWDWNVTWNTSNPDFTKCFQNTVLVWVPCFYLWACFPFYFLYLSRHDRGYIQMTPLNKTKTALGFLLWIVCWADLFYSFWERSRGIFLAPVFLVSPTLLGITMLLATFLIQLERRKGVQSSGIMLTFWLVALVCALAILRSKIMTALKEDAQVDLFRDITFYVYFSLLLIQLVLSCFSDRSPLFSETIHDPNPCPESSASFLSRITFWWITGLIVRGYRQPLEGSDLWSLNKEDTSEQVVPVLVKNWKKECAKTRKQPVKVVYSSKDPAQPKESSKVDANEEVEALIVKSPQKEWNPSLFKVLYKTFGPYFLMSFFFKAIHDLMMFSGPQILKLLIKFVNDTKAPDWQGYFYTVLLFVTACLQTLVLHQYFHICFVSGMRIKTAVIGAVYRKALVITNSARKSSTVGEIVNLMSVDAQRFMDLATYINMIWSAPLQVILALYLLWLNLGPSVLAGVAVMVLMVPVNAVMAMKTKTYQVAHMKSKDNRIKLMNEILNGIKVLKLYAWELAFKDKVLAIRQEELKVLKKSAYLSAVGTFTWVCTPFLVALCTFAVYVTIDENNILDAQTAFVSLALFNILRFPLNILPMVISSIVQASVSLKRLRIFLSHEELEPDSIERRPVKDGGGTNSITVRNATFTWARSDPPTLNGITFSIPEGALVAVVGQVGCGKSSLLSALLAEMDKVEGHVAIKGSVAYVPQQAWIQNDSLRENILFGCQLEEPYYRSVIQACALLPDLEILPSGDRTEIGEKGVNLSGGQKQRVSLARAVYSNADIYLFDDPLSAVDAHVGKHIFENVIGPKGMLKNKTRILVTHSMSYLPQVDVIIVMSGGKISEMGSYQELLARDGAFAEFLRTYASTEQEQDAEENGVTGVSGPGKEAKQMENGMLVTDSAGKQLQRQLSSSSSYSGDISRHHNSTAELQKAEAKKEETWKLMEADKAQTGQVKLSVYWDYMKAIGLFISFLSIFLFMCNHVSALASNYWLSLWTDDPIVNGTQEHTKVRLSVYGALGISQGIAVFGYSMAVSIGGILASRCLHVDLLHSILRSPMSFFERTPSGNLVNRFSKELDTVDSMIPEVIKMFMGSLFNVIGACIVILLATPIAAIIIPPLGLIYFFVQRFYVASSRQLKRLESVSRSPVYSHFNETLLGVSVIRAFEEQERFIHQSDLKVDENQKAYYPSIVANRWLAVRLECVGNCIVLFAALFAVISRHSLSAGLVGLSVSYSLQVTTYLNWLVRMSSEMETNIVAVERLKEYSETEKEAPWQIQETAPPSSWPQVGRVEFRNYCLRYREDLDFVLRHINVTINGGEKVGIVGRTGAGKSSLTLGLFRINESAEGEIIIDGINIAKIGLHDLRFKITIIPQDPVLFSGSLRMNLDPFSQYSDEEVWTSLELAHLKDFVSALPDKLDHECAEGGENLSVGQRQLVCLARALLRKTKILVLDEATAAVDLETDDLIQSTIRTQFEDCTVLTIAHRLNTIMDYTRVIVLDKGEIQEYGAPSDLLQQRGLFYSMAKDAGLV

SMILES | active or inactive on ABCC1 (ABCC1) | active or inactive on ABCG2 (ABCG2) | active or inactive on ABCB1 (ABCB1 [1]) | other results
O[C@@H](COc1cccc2ncccc12)CN1CCN([C@@H]2c3ccccc3[C@@H]3[C@H](c4ccccc42)C3(F)F)CC1 [Ly335979, zosuquidar] | − | − |  | 
COc1cc2c(cc1OC)CN(CCc1ccc(NC(=O)c3cccc4c(=O)c5cccc(OC)c5[nH]c34)cc1)CC2 [GF 120918, elacridar] | − | + | + | 
CC(C)(C)OC(=O)NN(C(=O)N[C@@H](CCCCNC(=O)OCc1ccccc1)C(=O)OC(C)(C)C)c1ccc(C(=O)OCc2ccccc2)cc1 [IA.3, tert-Butyl ester of (2S)-6-(benzyloxycarbonylamino)-2-[1-(4′-(benzyloxycarbonyl)phenyl)-2-(tert-butoxycarbonyl)hydrazino-carbonylamino]hexanoic acid] |  |  |  | melting point: 106 °C; selectivity toward one or other of the proteins BCRP or P-gp (BCRP/ABCG2; BCRP versus P-gp): selective; inhibition at 10 μM (BCRP/ABCG2; human, HEK-293 cells transfected with ABCG2 (vector pcDNA3.1), probe mitoxantrone (5 μM), 10 μM compound, mitoxantrone efflux, HEK-293 cells, three independent experiments, read-out: BCRP/ABCG2 % efficacy 10 μM): 38%; IC50 (P-gp/ABCB1): 330 nM; inhibition at 2 μM (P-gp/ABCB1; human, NIH3T3 cells transfected with ABCB1 (vector pHaMDR1/A), probe mitoxantrone (5 μM), 2 μM compound, read-out: P-gp/ABCB1 % efficacy 2 μM): 90 ± 7%; inhibition at 10 μM (P-gp/ABCB1; human, NIH3T3 cells transfected with ABCB1 (vector pHaMDR1/A), probe mitoxantrone (5 μM), 10 μM compound, read-out: P-gp/ABCB1 % efficacy 10 μM): 98 ± 14%; type of inhibition of ABCB1 (ABCB1 [2]): inhibition of noncompetitive type
COc1cc2c(cc1OC)CN(CCc1ccc(NC(=O)c3cc(OC)c(OC)cc3NC(=O)c3cnc4ccccc4c3)cc1)CC2 [XR9576, tariquidar] |  | + | + | 
COc1cc(C(=O)C(=O)N2CCCC[C@H]2C(=O)OC(CCCc2cccnc2)CCCc2cccnc2)cc(OC)c1OC [VX-710, biricodar] | + | + | + | 
COC(=O)c1cnc2n1CCc1ccccc1C2=C1CCN(CCc2ccc(OCc3ccc4ccccc4n3)cc2)CC1 [R101933, laniquidar] |  |  | + | 
CCOC/C=C/c1ccc(-c2nc(-c3ccc(NC(C)C)cc3)c(-c3ccc(NC(C)C)cc3)[nH]2)cc1 [ONT-093, ontogen] | − |  | + | 
C/C=C/C[C@@H](C)C(=O)[C@H]1C(=O)N[C@@H](C(C)C)C(=O)N(C)CC(=O)N(C)[C@@H](CC(C)C)C(=O)N[C@@H](C(C)C)C(=O)N(C)[C@@H](CC(C)C)C(=O)N[C@@H](C)C(=O)N[C@H](C)C(=O)N(C)[C@@H](CC(C)C)C(=O)N(C)[C@@H](CC(C)C)C(=O)N(C)[C@@H](C(C)C)C(=O)N1C [PSC833, valspodar] |  | − | + | 
